One data set concerns MCF7. Put plainly: Cell cycle progression (propidium iodide, flow cytometry). The following applies: 48 hr; for G1 / G2/M / S: MCF7. The data set is classed as cell-based, human. How it is done:
(§1) To determination of the effects of the disclosed compounds on the cell cycle, 2-3×10^5 cells were exposed to the test compounds (0-5 μM) and incubated for 48 hr prior to analysis (Table 6). Cells were trypsinized, washed with PBS and fixed in 1.5 mL 95% ethanol at 4° C. overnight, followed by incubation with RNAse and staining with propidium iodide (Sigma). The DNA content was determined by flow cytometry.

The subject of a further data set is HCT-116 p53 −/−. The description is as above. The note with it: 48 hr; for G1 / G2/M / S: HCT-116 p53 −/−. The data set is classed as cell-based, human. How it is done: as §1
A further data set concerns HCT116. The description is as above. The data set is classed as cell-based, human. The note with it: 48 hr; for G1 / G2/M / S: HCT116. The protocol:
as §1

The test system of a further data set is cdc25c. The data set is described as follows: Protein expression, Western blot in MCF-7 cells. The data set is classed as cell-based, human. The note with it: 24 h (FIG. 4B). How it is done:
(§2) In FIG. 4A, MCF-7 cells were exposed to 1 μM concentration of the indicated compounds for 6 hours. Western blots were probed with antibodies specific for the proteins indicated. Numbers below each lane show densitometry readings for each lane as compared to control. In FIG. 4B, MCF-7 cells were exposed to the indicated concentration of compound 28 and incubated for 24 hours. Western blots were probed with antibodies specific for the proteins indicated.
(§3) To determine the disclosed compounds effect on protein expression in human breast cancer cells, cultured MCF-7 cells were exposed to various concentrations of the test compounds for 6 h (FIG. 4A) or 24 h (FIG. 4B). Cell lysates were fractionated with identical amounts of protein by SDS-PAGE and transferred to Bio-Rad trans-Blot nitrocellulose membranes (Bio-Rad Laboratories, Hercules, Calif.). The nitrocellulose membrane was incubated in blocking buffer (Tris-buffered saline containing 0.1% Tween 20 and 5% nonfat milk) for 1 h at room temperature, then with the appropriate primary antibody overnight at 4° C. or 2 h at room temperature with gentle shaking. Finally, the membrane was washed three times with the washing buffer (Tris-buffered saline containing 0.1% Tween 20) for 15 min, incubated with goat anti mouse/rabbit IgG-horseradish peroxidase-conjugated antibody (Bio-Rad) for 1 h at room temperature, and washed again (in triplicate). The protein of interest was detected by enhanced chemiluminescence reagents from PerkinElmer LAS, Inc (Boston, Mass.).

A further data set deals with E2F1. The data set is described as follows: Protein expression, Western blot in MCF-7 cells. The data set is classed as cell-based, human. The note with it: 24 h (FIG. 4B). The protocol: as §2, §3
The test system of the next data set is cleaved PARP. Put plainly: Protein expression, Western blot in MCF-7 cells. The data set is classed as cell-based, human. The note with it: 24 h (FIG. 4B). The protocol: as §2, §3
Another data set deals with cdc2. Put plainly: Protein expression, Western blot in MCF-7 cells. The data set is classed as cell-based, human. The following applies: 24 h (FIG. 4B). How it is done:
as §2, §3

The subject of data set [1] is different cancer cell lines. The data set is described as follows: Induction of apoptosis (annexin V-FITC). The data set is classed as cell-based, human. The note with it: annexin V-FITC/PI; 0.1-25 μM, 48 hr; effect in the 1-10 μM range. The protocol: Cells in early and late stages of apoptosis were detected with an annexin V-FITC apoptosis detection kit from BioVision (Mountain View, Calif.). In brief, cells were exposed to the test compounds (0, 0.1, 1, 10, 25 μM) and incubated for 48 hr prior to analysis. Media and cells were collected and washed with serum-free media. Cells were then re-suspended in 500 μL of Annexin V binding buffer followed by addition of 5 μL Annexin VFITC and 5 μL of propidium iodide (PI). The samples were incubated in the dark for 5 min at room temperature prior to analysis. […] Cells that were positive for Annexin V-FITC alone (early apoptosis) and Annexin V-FITC and PI (late apoptosis) were counted.

In data set [2] the test system is female, athymic nude mice. The note with it: 8, 20 or 40 mg/kg intra-peritoneally, 1 time per week for 3 weeks. How it is done: To evaluate the potential toxicity of the makaluvamine compounds disclosed, compound 4c was identified for testing in a mouse model. […] Four groups of 5 female, athymic nude mice (Federick Cancer Research, Rockville, Md.) were injected intra-peritoneally, at doses of 8, 20 or 40 mg/kg of compounds 4c (treatment group) or vehicle only (control group). […] Compound 4c was injected at its respective dose in a 200 μl volume of saline:DMSO (100 μl:100 μl). The vehicle only group was injected with 200 μl saline:DMSO. Injections were given 1 time per week for 3 weeks. […] Mice in each groups were evaluated for survival and weight gain/loss during the treatment period.

The structures appear in SMILES notation.

As for `O=C(O)C(F)(F)F.O=C1C(NCc2ccc(F)cc2)=CC2=NCCc3c[nH]c1c32` [Compound 28], the G1 with MCF7 (0.1 μM) was 75.10; in the data set on MCF7 (0.5 μM) it was 51.97; in the data set with MCF7 (1 μM), 53.96; in the data set with HCT-116 p53 −/− (0.5 μM), 28.18; in the data set with HCT-116 p53 −/− (1 μM), 25.59; in the data set with HCT116 (0.5 μM), 31.82. In the data set on HCT116 (1 μM), the G1 is listed as 28.40. Moreover, the G2/M with MCF7 (0.1 μM) amounted to 17.53; in the data set with MCF7 (0.5 μM), 20.17; in the data set on MCF7 (1 μM), 16.21; in the data set with HCT-116 p53 −/− (0.5 μM), 49.02; in the data set with HCT-116 p53 −/− (1 μM), 45.20; in the data set with HCT116 (0.5 μM), 45.04. This compound also yielded a G2/M in the data set with HCT116 (1 μM) of 38.17. In addition, the S is given as 7.37 with MCF7 (0.1 μM); 27.86 in the data set on MCF7 (0.5 μM); 29.82 with MCF7 (1 μM); 22.80 in the data set on HCT-116 p53 −/− (0.5 μM); 29.21 with HCT-116 p53 −/− (1 μM); 23.14 with HCT116 (0.5 μM). In addition, the S in the data set on HCT116 (1 μM) is given as 33.43. For the same compound, the cell cycle arrest entry with MCF7 (breast cancer (MCF-7), dose-dependent, 0-5 μM) is “cell cycle arrest in the S phase”; in the data set with HCT-116 p53 −/− (colon cancer HCT116 p53−/−, dose-dependent), “cell cycle arrest in the S and G2/M phase”; with HCT116 (colon cancer HCT116, dose-dependent), “cell cycle arrest in the S and G2/M phase”. In addition, the “expression level of cdc25c” value in the data set on cdc25c is on record as “decreased”. Further, in the data set on E2F1, the “expression level of E2F1” value is “decreased”. In addition, the “expression of cleaved PARP” value in the data set on cleaved PARP was “increased expression”. Also, the “expression level of cdc2” value in the data set with cdc2 is recorded as “decreased”. Moreover, in data set [1], the induction of apoptosis entry was “significant induction of apoptosis”.
For `O=C1C(NCc2ccccc2)=CC2=NCCc3c[nH]c1c32` [Compound 4c], in data set [2], the “weight changes between treatment groups” value is on record as “No significant weight changes” and the “weight gain/loss during the treatment period” value is listed as “all mice gained weight”. This compound also yielded a survival in data set [2] (observed 21 days) of 100%. The induction of apoptosis result in data set [1] is given as “significant induction of apoptosis”.

The values above are taken from US20100144779A1, “Marine Alkalod Makaluvamines and Derivatives Thereof” (THE UAB RESEARCH FOUNDATION, priority 2007, published 2010).
